Laboratory results taken from patent publication US9363998B2, “Pesticidal composition and its use” (SUMITOMO CHEMICAL COMPANY, LIMITED, priority 2010, dated 2016).

System: Rhizoctonia solani
Experiment: Soybean seed treatment test in soil contaminated by Rhizoctonia solani (disease control efficacy)
Format: in vivo, Rhizoctonia solani on soybean (variety: Natto shoryu)
Details: carboxamide compound alone 0.2 g/100 kg of seeds, no thiodicarb, soybean cultivated 20 days in soil contaminated by Rhizoctonia solani, efficacy vs non-treated plot
Experimental: A cyclohexanone solution (100 microL) containing prescribed amount (weight) of a test compound was applied on seeds of soybean (variety:Natto shoryu) (10 g) by using a rotary apparatus for seed treatment (Seed dresser, manufactured by Hans-Ulrich Hege GmbH).
One day after the application, plastic pot was filled with soil contaminated by Rhizoctonia solani, and the seeds treated with the test compounds were seeded in the soil and cultivated in a glass-greenhouse for 20 days (hereinafter referred to as “treated plot”).
Thereafter, the presence of disease caused by Rhizoctonia solani in the young plants which germinated from each seed was observed and disease severity was calculated according to the following calculation formula (1).
On the other hand, seeds of soybean which were not treated as above were cultivated in the same way as above (hereinafter referred to as “non-treated plot”) and the disease severity in “non-treated plot” was calculated in the same way as the above “treated plot”. On the basis of the above disease severity in “treated plot” and “non-treated plot”, efficacy in “treated plot” was evaluated according to the following calculation formula (2). […]

Q: Which “efficacy (%)” value does the source give for `CC1CC(C)(C)c2cccc(NC(=O)c3cn(C)nc3C(F)F)c21` (stereo not shown) [carboxamide compound (1)] here?
A: 47.4%
